Laboratory results reported in patent publication US20060205669A1, “G-type peptides and other agents to ameliorate atherosclerosis and other pathologies” (The Regents of the University of California, priority 2004, published 2006).
“Also recorded” adds a separate entry of the source.

Tests used:
ApoE null mice [1] = assay: HDL and pre-beta HDL from apoE null mice fed solution-phase (fragment) synthesized D-4F: inhibition of LDL-induced monocyte chemotaxis; format: in vivo; conditions: apoE null mice fed 5 micrograms solution-phase/fragment-synthesized D-4F, bled at 12 hours; FIG. 15
Text: ApoE null mice were fed 5 micrograms of the D-4F synthesized as described above (Frgmnt) or the mice were given the same amount of mouse chow without D-4F (Chow). Twelve hours after the feeding was started, the mice were bled and their plasma was fractionated on FPLC.

ApoE null mice [2] = assay: Protection against LDL-induced monocyte chemotactic activity by HDL from apo E null mice given oral peptides; format: in vivo; conditions: peptide in drinking water (D-4F 5-50, D-J336 20-50 μg per ml), 24 hrs, murine HDL at 100 μg cholesterol/ml, FIG. 4
Experimental: FIG. 4 illustrates the effect of oral apoA-1 peptide mimetic and apoJ peptide on HDL protective capacity. ApoE null mice (4 per group) were provided with D-4F (designated as F) at 50, 30, 20, 10, 5 μg per ml of drinking water or apoJ peptide (designated as J) at 50, 30 or 20 μg per ml of drinking water. After 24 hrs blood was collected, plasma fractionated by FPLC and fractions containing LDL (designated as mLDL for murine LDL) and fractions containing HDL (designated as mHDL) were separately pooled and HDL protective capacity against LDL oxidation as determined by LDL-induced monocyte chemotactic activity was determined. For the assay controls the culture wells received no lipoproteins (no additions), mLDL alone (at 200 μg cholesterol/ml), or mLDL+standard normal human HDL (designated as Cont. h HDL, at 350 μg HDL cholesterol/ml).
For testing the murine HDL, mLDL together with murine HDL (+F mHDL or +J mHDL) were added to artery wall cell cultures. […] The murine HDL was used at 100 μg cholesterol/ml.

LDL receptor null mice = assay: HDL protective capacity in LDL receptor null mice given peptide in drinking water; format: in vivo; conditions: 0.25 or 0.5 mg per ml drinking water, 24 or 48 hrs, mouse HDL at 100 μg cholesterol/ml, FIG. 3
Experimental: D-4F designated as F, or the apoJ peptide made from D amino acids (D-J336, designated as J) was added to the drinking water of LDL receptor null mice (4 per group) at 0.25 or 0.5 mg per ml of drinking water. After 24- or 48-hrs blood was collected from the mice and their HDL was isolated and tested for its ability to protect against LDL-induced monocyte chemotactic activity. Assay controls included culture wells that received no lipoproteins (no addition), or control human LDL alone (designated as LDL, 200 μg cholesterol/ml), or control LDL+control human HDL (designated as +HDL, 350 μg HDL cholesterol). For testing the mouse HDL, the control LDL was added together with mouse HDL (+F HDL or +J HDL) to artery wall cell cultures. The mouse HDL was added at 100 μg cholesterol/ml respectively.

ApoE null mice [3] = assay: Trabecular bone mineral density in apoE null mice; format: in vivo; conditions: drinking water, 6 weeks
Obese Zucker Rats [4] = assay: Balloon injury of the common carotid artery, intimal media ratio; format: in vivo; conditions: 5 mg/kg/daily injected for 1 week before injury, sacrificed two weeks later, FIG. 13
Experimental: FIG. 13 illustrates the effect of D4F on balloon injury of the carotid artery. Sixteen week old Obese Zucker Rats were injected with D-4F (5 mg/kg/daily) for 1 week at which time they underwent balloon injury of the common carotid artery. Two weeks later the rats were sacrificed and the intimal media ratio determined.
Sixteen week old Obese Zucker Rats were injected with D-4F (5 mg/kg/daily) for 1 week at which time they underwent balloon injury of the common carotid artery. Two weeks later the rats were sacrificed and the intimal media ratio determined.

Obese Zucker Rats [5] = assay: Plasma glucose and lipid hydroperoxides (LOOH) in Obese Zucker Rats; format: in vivo; conditions: Obese Zucker Rats 26 weeks, 5.0 mg/kg/day intraperitoneal, 10 days; FIG. 12
Experimental: Obese Zucker Rats 26 weeks of age were bled and then treated with daily intraperitoneal injections of D-4F (5.0 mg/kg/day). After 10 days the rats were bled again plasma glucose and lipid hydroperoxides (LOOH) were determined. *p=0.027; ** p=0.0017.

[6] = tested on: mice fed an atherogenic diet; conditions: 20 μg daily injected; cited from earlier work
mice = conditions: injection into mice; cited from earlier work
human volunteers = conditions: infusion into humans; cited from earlier work
human LDL = human LDL treated in vitro; cited from earlier work

With “Ac-D-W-F-K-A-F-Y-D-K-V-A-E-K-F-K-E-A-F-NH2 (Ac-DWFKAFYDKVAEKFKEAF-NH2; also: D-amino acids, places not given here) [Peptide D-4F, apoA-I mimetic class A amphipathic helical peptide]” the “biological activity: producing HDL and pre-beta HDL that inhibit LDL-induced monocyte chemotaxis” value (ApoE null mice [1]) was “biologically active in mice; also recorded: very biologically active”, the “HDL protective capacity against LDL oxidation (LDL-induced monocyte chemotactic activity)” value (ApoE null mice [2]) was “as active as 350 μg/ml of normal human HDL” and the “HDL protective capacity against LDL-induced monocyte chemotactic activity” value (LDL receptor null mice) was “as active as 350 μg/ml of control human HDL”. For the same substance, the “trabecular bone mineral density” value (ApoE null mice [3]) was “dramatically increased”, the “restenosis (intimal media ratio) after balloon injury of the common carotid artery” value (Obese Zucker Rats [4]) was “reduced” and the “symptoms of diabetes (plasma glucose)” value (Obese Zucker Rats [5]) was “effective in mitigating symptoms of diabetes”.
In the case of “Ac-D-W-L-K-A-F-Y-D-K-V-F-E-K-F-K-E-F-F-NH2 (Ac-DWLKAFYDKVFEKFKEFF-NH2) [Peptide 5F]”, the “LDL from PBS-injected mice compared with LDL from peptide-injected mice: oxidation and induction of monocyte chemotactic activity” value [6] is given as “more readily oxidized and more readily induced monocyte chemotactic activity”.
For “apo A-I: the major protein of HDL, apolipoprotein A-I”, the “LDL isolated after injection: oxidation by human artery wall cells and induction of monocyte chemotactic activity” value (mice) is listed as “resistant to oxidation by human artery wall cells and did not induce monocyte chemotactic activity”, the “LDL isolated after infusion: oxidation by human artery wall cells and induction of monocyte chemotactic activity” value (human volunteers) is listed as “resistant to oxidation by human artery wall cells and did not induce monocyte chemotactic activity” and the “removal of seeding molecules (including HPODE and HPETE) from LDL” value (human LDL) is listed as “removed seeding molecules from the LDL”.
